# Data taken from patent US11926841B2, “AAV-based conditional expression system” (priority 2016, dated 2024).
# Experiments:
# Assay type in all cases: cell-based
# [1] = tested on: ACV sensitive HSV-2 isolate; assay: AAV replicon based resistance test with clinical HSV-2 isolates, sensitive isolate; details: ACV 20 μM and higher; LE2D8 cells; 48 hpi
# Description: (§1) For testing the single HSV-2 virus isolates, LE2D8 were seeded to 3.3×10^4 cells in a 96 well format, 2 hours before treatment with 0.8, 4, 20, 100 and 500 μM ACV and infection with 1:10 diluted HSV-2 isolates, always using technical triplicates. After 48 hpi, GLuc activity in the supernatant was measured by luminometry and values were compared to non-treated and mock infected cells as above. In FIGS. 6A and 6B we show example of the replicon response induced by an ACV sensitive HSV2- and one of an ACV resistant HSV-2 isolate.
# [2] = tested on: ACV sensitive HSV-1 laboratory strain; assay: Endpoint dilution assay (TCID50) of supernatants of ACV treated infected LE2D8 cells, sensitive HSV-1; details: ACV 1, 6, 12, 48 and 96 μg/ml; counts at day 7
# Text: (§2) For the validation of the new established replicon based assay we made an endpoint-dilution-assay to monitor the amount of the produced viruses in presence of the ACV treatment. This standardised assay for detection of viral growth is very sensitive but very time consuming since 5-7 days are required to obtain the results. To test the virus production in our assay condition with the standard method the sensitive and ACV-resistant HSV-1 containing assay supernatants of the infected LE2D8 cells treated with different concentrations of ACV (n.t., 1, 6, 12, 48 and 96 μg/ml) were collected. Subsequently endpoint dilution assays were performed using HEK-cells in a 96 well plate format. The Tissue Culture Infection Dose 50 (TCID50) was calculated after collecting the infectivity counts at day 7 (FIG. 5B).
# [3] = tested on: wild type ACV sensitive HSV-1 laboratory strain; assay: AAV replicon based ACV resistance test in LE2D8 cells (GLuc luciferase readout), sensitive HSV-1; details: ACV 6-12 μg/mi, MOI 0.035, 48 hpi
# Description: The cell line LE2D8 was seeded onto 96-well-plates at density of 3.3×10^4 cell/well. Two hours after seeding the cells were left untreated or were treated with different concentrations of ACV (CAS: 59277-89-3) (ranging from 0.05 to 144 μg/ml). Right after treatment the cells were infected with either a wild type ACV sensitive HSV-1 laboratory strain or an ACV resistant strain (kindly provided from Dr. Gundula Jäger, Max von Pettenkofer-Institute, LMU Munich) using an MOI of 0.035. After only 48 hpi luciferase activity in 20 μl of the supernatant was measured as the previous experiments. The luciferase activities of the ACV treated cells were compared to the luciferase activities obtained after infection of the non-treated cells. The luciferase induction of the non-treated cells was set 100% and the activity of the ACV treated cells was depicted as % of the non-treated values (FIG. 5A).
# [4] = tested on: ACV resistant HSV-2 isolate; assay: AAV replicon based resistance test with clinical HSV-2 isolates, resistant isolate; details: ACV 0.8, 4, 20, 100 and 500 μM; LE2D8 cells; 48 hpi
# Description: as §1
# [5] = tested on: ACV-resistant HSV-1; assay: Endpoint dilution assay (TCID50) of supernatants of ACV treated infected LE2D8 cells, resistant HSV-1; details: ACV 1, 6, 12, 48 and 96 μg/ml; counts at day 7
# Text: as §2
smiles,measurement,setting,value
"Nc1nc2c(ncn2COCCO)c(=O)[nH]1 [ACV, Aciclovir]",GLuc activity compared to non-treated cells,[1],decreasing amounts of GLuc activity
same,"virus replication under ACV treatment (TCID50, endpoint dilution)",[2],indeed inhibited by ACV treatment
same,"luciferase activity, % of non-treated cells",[3],20%
same,"GLuc induction, % of the non-treated values",[4],≥ 50%
same,"virus replication under ACV treatment (TCID50, endpoint dilution)",[5],could not inhibit the replication
